Measurements: patent publication US10183938B2, “Geminal substituted quinuclidine amide compounds as agonists of α-7 nicotonic acetylcholine receptors” (AXOVANT SCIENCES GMBH, priority 2014, dated 2019)
Structures can show the parent of a compound that is named as a salt.

biological target: human α7 nAChRs transiently expressed in Xenopus laevis oocytes (Homo sapiens (Human), UniProt P36544); test: Oocyte electrophysiology screen (TEVC); assay type: cell-based; conditions: 0.01 mM test compound, peak current relative to 0.2 mM ACh
Method: Oocyte Electrophysiology Screen (% ACh @ 10 μM Oocyte)
The Oocyte Electrophysiology Screen studies were performed under contract by HiQScreen Geneva, Switzerland. All experiments were carried out at human α7 nAChRs transiently expressed in Xenopus laevis oocytes using the method of cDNA expression. Currents evoked by acetylcholine or other agonist ligands were recorded using the standard two-electrode voltage-clamp configuration (TEVC). X. laevis oocytes were prepared and injected using standard procedures. Briefly, ovaries were harvested from X. laevis females that were deeply anesthetized and pithed following the animal rights rule from the Geneva canton. A small piece of ovary was isolated for immediate preparation while the remaining part was placed at 4° C. in a sterile Barth solution containing in mM: NaCl 88, KCl 1, NaHCO3 2.4, HEPES 10, MgSO4.7H2O 0.82, Ca(NO3)2.4H2O 0.33, CaCl2.6H2O 0.41, at pH 7.4, and supplemented with 20 μg/mL of kanamycin, 100 unit/mL penicillin and 100 μg/mL streptomycin. […] Cells were held at −80 mV. Data were filtered at 10 Hz, captured at 100 Hz and analyzed using proprietary data acquisition and analysis software running under Matlab (Mathworks Inc.).
Experimental Protocol and Analysis
After establishing a baseline transmembrane current, acetylcholine (ACh) was applied for 5 seconds at a concentration of 0.2 mM to establish a control ACh-evoked current response. Following a wash period of 90 s in OR2 medium (free of ACh), cells were then exposed for 30 s to the test compound applied at 0.01 mM. The same reference ACh test pulse was immediately given at the end of the compound exposure and again after 90 s of recovery in OR2 Medium (free of ACh or test compound). All data were determined in triplicate. The response evoked by the test compound was expressed as a percentage of that evoked by ACh: Response (% ACh)=100×(Itest/IACh) where Itest is the peak inward current measured during exposure to 0.01 mM of test compound and IACh is the peak inward current measured in the presence of ACh.

human α7 nAChRs transiently expressed in Xenopus laevis oocytes, sequence (P36544 23-502 limits assumed): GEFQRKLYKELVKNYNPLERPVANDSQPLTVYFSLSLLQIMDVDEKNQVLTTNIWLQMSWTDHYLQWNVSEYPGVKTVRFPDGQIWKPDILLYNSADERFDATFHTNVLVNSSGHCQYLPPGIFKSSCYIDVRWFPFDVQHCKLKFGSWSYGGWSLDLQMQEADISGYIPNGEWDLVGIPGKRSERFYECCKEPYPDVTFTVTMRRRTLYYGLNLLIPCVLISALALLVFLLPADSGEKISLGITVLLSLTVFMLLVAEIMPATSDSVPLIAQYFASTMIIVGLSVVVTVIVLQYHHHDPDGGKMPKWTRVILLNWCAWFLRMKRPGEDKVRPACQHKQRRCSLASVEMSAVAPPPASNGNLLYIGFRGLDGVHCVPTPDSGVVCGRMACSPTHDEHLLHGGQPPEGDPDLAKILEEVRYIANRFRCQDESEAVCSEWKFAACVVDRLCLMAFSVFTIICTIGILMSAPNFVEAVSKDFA

Structure (SMILES) | % ACh @ 10 μM Oocyte [% ACh]
Cc1csc2cc(C(=O)N[C@@H]3C4CCN(CC4)C3(C)C)ccc12 [(R)-25, (R)—N-(2,2-dimethylquinuclidin-3-yl)-3-methylbenzo[b]thiophene-6-carboxamide hydrochloride] | 7
CC1(C)[C@H](NC(=O)c2ccc3cc[nH]c3c2)C2CCN1CC2 [(R)-26, (R)—N-(2,2-dimethylquinuclidin-3-yl)-1H-indole-6-carboxamide hydrochloride] | 687
CC1(C)[C@H](NC(=O)c2cnn3ncccc23)C2CCN1CC2 [(R)-27, (R)—N-(2,2-dimethylquinuclidin-3-yl)pyrazolo[1,5-b]pyridazine-3-carboxamide hydrochloride] | 0
CC1(C)[C@H](NC(=O)c2nc3ccccc3s2)C2CCN1CC2 [(R)-29, (R)—N-(2,2-dimethylquinuclidin-3-yl)benzo[d]thiazole-2-carboxamide hydrochloride] | 448
CC1(C)[C@H](NC(=O)c2ccc3ccoc3c2)C2CCN1CC2 [(R)-31, (R)—N-(2,2-dimethylquinuclidin-3-yl)benzofuran-6-carboxamide hydrochloride] | 294
Cc1nc2cc(C(=O)N[C@@H]3C4CCN(CC4)C3(C)C)ccc2o1 [(R)-32, (R)—N-(2,2-dimethylquinuclidin-3-yl)-2-methylbenzo[d]oxazole-5-carboxamide] | 61
Cc1nc2ccc(C(=O)N[C@@H]3C4CCN(CC4)C3(C)C)cc2o1 [(R)-33, (R)—N-(2,2-dimethylquinuclidin-3-yl)-2-methylbenzo[d]oxazole-6-carboxamide] | 6
Cc1nc2cc(C(=O)N[C@@H]3C4CCN(CC4)C3(C)C)ccc2s1 [(R)-34, (R)—N-(2,2-dimethylquinuclidin-3-yl)-2-methylbenzo[d]thiazole-5-carboxamide hydrochloride] | 159
Cc1nc2ccc(C(=O)N[C@@H]3C4CCN(CC4)C3(C)C)cc2s1 [(R)-35, (R)—N-(2,2-dimethylquinuclidin-3-yl)-2-methylbenzo[d]thiazole-6-carboxamide hydrochloride] | 6
CC1(C)[C@H](NC(=O)c2ccc3occc3n2)C2CCN1CC2 [(R)-37, (R)—N-(2,2-dimethylquinuclidin-3-yl)furo[3,2-b]pyridine-5-carboxamide hydrochloride] | 5
Cc1cc2cc(C(=O)N[C@@H]3C4CCN(CC4)C3(C)C)ccc2o1 [(R)-38, (R)—N-(2,2-dimethylquinuclidin-3-yl)-2-methylbenzofuran-5-carboxamide hydrochloride] | 339
CC1(C)[C@H](NC(=O)c2ccc3oc(Cl)cc3c2)C2CCN1CC2 [(R)-39, (R)-2-chloro-N-(2,2-dimethylquinuclidin-3-yl)benzofuran-5-carboxamide hydrochloride] | 697
Cc1coc2ccc(C(=O)N[C@@H]3C4CCN(CC4)C3(C)C)cc12 [(R)-40, (R)—N-(2,2-dimethylquinuclidin-3-yl)-3-methylbenzofuran-5-carboxamide hydrochloride] | 517
CC1(C)[C@H](NC(=O)c2ccc3occ(Cl)c3c2)C2CCN1CC2 [(R)-41, (R)-3-chloro-N-(2,2-dimethylquinuclidin-3-yl)benzofuran-5-carboxamide hydrochloride] | 384
Cn1cnc2cc(C(=O)N[C@@H]3C4CCN(CC4)C3(C)C)ccc21 [(R)-42, (R)—N-(2,2-dimethylquinuclidin-3-yl)-1-methyl-1H-benzo[d]imidazole-5-carboxamide hydrochloride] | 0
CC1(C)[C@H](NC(=O)c2cc3ccc(N4CCOCC4)cc3s2)C2CCN1CC2 [(R)-44, (R)—N-(2,2-dimethylquinuclidin-3-yl)-6-morpholinobenzo[b]thiophene-2-carboxamide hydrochloride] | 1

Structure (SMILES) | % ACh @ 10 μM Oocyte [% ACh]
CC1(C)[C@H](NC(=O)c2cc3ccc(N4CCC(F)(F)CC4)cc3s2)C2CCN1CC2 [(R)-45, (R)-6-(4,4-difluoropiperidin-1-yl)-N-(2,2-dimethylquinuclidin-3-yl)benzo[b]thiophene-2-carboxamide hydrochloride] | 1
CC(C)Oc1ccc2cc(C(=O)N[C@@H]3C4CCN(CC4)C3(C)C)sc2c1 [(R)-47, (R)—N-(2,2-dimethylquinuclidin-3-yl)-6-isopropoxybenzo[b]thiophene-2-carboxamide hydrochloride] | 1
CC1(C)[C@H](NC(=O)c2cc3ccc(N)cc3s2)C2CCN1CC2 [(R)-49, (R)-6-amino-N-(2,2-dimethylquinuclidin-3-yl)benzo[b]thiophene-2-carboxamide hydrochloride] | 576
CC1(C)[C@H](NC(=O)c2cc3ccc(C4CCOCC4)cc3s2)C2CCN1CC2 [(R)-50, (R)—N-(2,2-dimethylquinuclidin-3-yl)-6-(tetrahydro-2H-pyran-4-yl)benzo[b]thiophene-2-carboxamide hydrochloride] | 0
Cl.O=C(N[C@@H]1C2CCN(CC2)C12CC2)c1cc2c(cn1)OCCO2 [(R)-76, (R)—N-(1′-azaspiro[cyclopropane-1,2′-bicyclo[2.2.2]octan]-3′-yl)-2,3-dihydro-[1,4]dioxino[2,3-c]pyridine-7-carboxamide hydrochloride] | 129
O=C(N[C@@H]1C2CCN(CC2)C12CC2)c1cnn2ncccc12 [(R)-80, (R)—N-(1′-azaspiro[cyclopropane-1,2′-bicyclo[2.2.2]octan]-3′-yl)pyrazolo[1,5-b]pyridazine-3-carboxamide hydrochloride] | 0
O=C(N[C@@H]1C2CCN(CC2)C12CC2)c1cc2cccnc2s1 [(R)-81, (R)—N-(1′-azaspiro[cyclopropane-1,2′-bicyclo[2.2.2]octan]-3′-yl)thieno[2,3-b]pyridine-2-carboxamide hydrochloride] | 449
O=C(N[C@@H]1C2CCN(CC2)C12CC2)c1nc2ccccc2s1 [(R)-82, (R)—N-(1′-azaspiro[cyclopropane-1,2′-bicyclo[2.2.2]octan]-3′-yl)benzo[d]thiazole-2-carboxamide hydrochloride] | 239
Cc1nc2cc(C(=O)N[C@@H]3C4CCN(CC4)C34CC4)ccc2s1 [(R)-87, (R)-2-methyl-N-(1′-azaspiro[cyclopropane-1,2′-bicyclo[2.2.2]octan]-3′-yl)benzo[d]thiazole-5-carboxamide hydrochloride] | 341
Cc1nc2ccc(C(=O)N[C@@H]3C4CCN(CC4)C34CC4)cc2s1 [(R)-88, (R)-2-methyl-N-(1′-azaspiro[cyclopropane-1,2′-bicyclo[2.2.2]octan]-3′-yl)benzo[d]thiazole-6-carboxamide hydrochloride] | 133
O=C(N[C@@H]1C2CCN(CC2)C12CC2)c1cnc2occc2c1 [(R)-89, (R)—N-(1′-azaspiro[cyclopropane-1,2′-bicyclo[2.2.2]octan]-3′-yl)furo[2,3-b]pyridine-5-carboxamide hydrochloride] | 0
O=C(N[C@@H]1C2CCN(CC2)C12CC2)c1ccc2occc2n1 [(R)-90, (R)—N-(1′-azaspiro[cyclopropane-1,2′-bicyclo[2.2.2]octan]-3′-yl)furo[3,2-b]pyridine-5-carboxamide hydrochloride] | 3
Cc1coc2ccc(C(=O)N[C@@H]3C4CCN(CC4)C34CC4)cc12 [(R)-93, (R)-3-methyl-N-(1′-azaspiro[cyclopropane-1,2′-bicyclo[2.2.2]octan]-3′-yl)benzofuran-5-carboxamide hydrochloride] | 516
Cn1cnc2ccc(C(=O)N[C@@H]3C4CCN(CC4)C34CC4)cc21 [(R)-96, (R)-1-methyl-N-(1′-azaspiro[cyclopropane-1,2′-bicyclo[2.2.2]octan]-3′-yl)-1H-benzo[d]imidazole-6-carboxamide hydrochloride] | 0
O=C(N[C@@H]1C2CCN(CC2)C12CC2)c1cc2ccc(-n3ccnn3)cc2s1 [(R)-98, (R)—N-(1′-azaspiro[cyclopropane-1,2′-bicyclo[2.2.2]octan]-3′-yl)-6-(1H-1,2,3-triazol-1-yl)benzo[b]thiophene-2-carboxamide hydrochloride] | 3
O=C(N[C@@H]1C2CCN(CC2)C12CC2)c1cc2ccc(N3CCC(F)(F)CC3)cc2s1 [(R)-100, (R)-6-(4,4-difluoropiperidin-1-yl)-N-(1′-azaspiro[cyclopropane-1,2′-bicyclo[2.2.2]octan]-3′-yl)benzo[b]thiophene-2-carboxamide hydrochloride] | 1
